Experimental findings from patent US5659055A, “Cytoprotective fatty moiety compounds” (Virginia Commonwealth University, priority 1995, dated 1997) are described below.

Experiment [1] in a line: Autooxidation of phosphatidylethanolamine.
The subject of experiment [2] is Human SF-PLA2 Induced Mouse Paw Edema. The experiment can be described thus: Human SF-PLA2 induced mouse paw edema, oral administration. In kind it is in vivo. The protocol:
The mouse paw edema is inhibited in dose related fashion by increasing concentrations of RISE-1 given orally 1.0 hours before induction of the edema by SF-PLA2.

Experiment [3] can be described thus: Oxidation of arachidonic acid (decreased turbidity and hydroperoxide formation).

In the case of `CCCCCCCC/C=C\CCCCCCCCOC(=O)CCCCCCC/C=C\CC(CCCCCC)OC(=O)/C=C/C(=O)O` (stereo not drawn) [OA1RAFA, Oleyl Alcohol-Ricinoleate-Fumaric Acid Diester], the “effect on the autooxidation of phosphatidylethanolamine” value (from here on “effect … of phosphatidylethanolamine”) in experiment [1] is listed as “effective inhibitors”.

On to `CCCCCCCC/C=C\CCCCCCCC(=O)OC(C/C=C\CCCCCCCC(=O)O)CCCCCC` (stereo not drawn) [RAOA, Ricinoleic Acid--Oleic Acid Ester], for which the “effect … of phosphatidylethanolamine” value in experiment [1] is recorded as “effective inhibitors”.

Consider `CCCCC/C=C\C/C=C\CCCCCCCC(=O)OC(C/C=C\CCCCCCCC(=O)O)CCCCCC` (stereo not drawn) [RALA, Ricinoleic acid--Linoleic Acid Ester], for which the “effect … of phosphatidylethanolamine” value in experiment [1] is given as “effective inhibitors”.

`CCCCCCC(C/C=C\CCCCCCCC(=O)O)OC(=O)CCCCCCCCC(=O)O` (stereo not drawn) [RISE-1, Ricinoleic Acid--Sebacyl Ester]: in experiment [1], the “effect … of phosphatidylethanolamine” value was “no effect”. Also, the “oral antiinflammatory activity in this model of edema” value in experiment [2] is “has oral antiinflammatory activity”. Also, in experiment [3], the “effect on the autooxidation of arachidonic acid” value was “no effect”.
